Data published in patent US20210292741A1, “COMBINATION THERAPEUTICS USING TUMOR TREATING FIELDS (TTFIELDS)” (THE BOARD OF REGENTS OF THE UNIVERSITY OF TEXAS SYSTEM, priority 2020, published 2021).

Test system: H1299, A549, H157, and H4006 cells
Experiment: clonogenic survival assay, TTFields combined with E2F and CDK 4/6 inhibitors
Format: cell-based, Human
Settings: single inhibitor plus TTFields, Highest Single Agent approach
Procedure: FIGS. 6A-6B provide the results of exemplary clonogenic survival assays in four lung cancer cells lines—H1299, A549, H157, and H4006 cells—under various conditions testing combinations of TTFields with agents that dysregulate E2F signaling or CDK4/6 signaling at 24, 48, and 72 hours. […] Cell survival after increased exposure to TTFields alone, or in combination with a E2F inhibitor, a CDK 4/6 inhibitor or to a combination of E2F inhibitor and CDK 4/6 inhibitor is shown.
Human NSCLC cell lines (H157, H4006, A549, and H1299) were purchased from American Tissue Culture Collection. All these cell lines were grown in RPMI medium supplemented with 10% (v/v) fetal bovine serum (Atlanta Biologicals, Flowery Branch, Ga., USA) and penicillin/streptavidin (final concentration 50 μg/ml; Sigma-Aldrich, St. Louis, Mo., U29SA). All cells were grown at 37° C. in a humidified incubator constantly supplied with 5% CO2.
The inovitro system (NovoCure Ltd, Haifa, Israel) was used to generate TTFields that use two pairs of electrodes printed perpendicularly on the outer walls of a Petri dish composed of high dielectric constant ceramic (lead magnesium niobate-lead titanite (PMN-PT)). […] The temperature was measured by 2 thermistors (Omega Engineering, Stamford, Conn., USA) attached to the ceramic walls. […]

CCOc1ccc(C(Nc2ccccn2)c2ccc3ccc(C)nc3c2O)cc1C (stereo not shown) [HLM006474]
cell killing in combination with TTFields as compared to TTFields alone: enhanced cell killing synergistically
